Toxic doses and inconclusive results are not listed. Cut-off read from the data, not from the text of the source: active = T/C of 150% or more; inactive = T/C below 125%.
System: L1210 leukemia ip in BDF1 mice, survival T/C
Experiment: NCI In Vivo Anticancer Drug Screen. Data for tumor model L1210 Leukemia (intraperitoneal) in B6D2F1 (BDF1) mice
Settings: endpoint: mean survival time, higher = longer survival
Procedure, shortened: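 Value reflects the ratio of survival in compound-treated mice to survival in vehicle-treated controls, with both groups carrying the same transplanted tumor.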

[1] = dose: 100.0 mg/kg/injection, schedule: Q04DX003 (ip), vehicle: saline
[2] = dose: 200.0 mg/kg/injection, schedule: Q04DX003 (ip), vehicle: saline
[3] = dose: 400.0 mg/kg/injection, schedule: Q04DX003 (ip), vehicle: saline
[4] = dose: 100.0 mg/kg/injection, schedule: Q04DX003 (ip), vehicle: saline with Tween-80
[5] = dose: 200.0 mg/kg/injection, schedule: Q04DX003 (ip), vehicle: saline with Tween-80
[6] = dose: 100.0 mg/kg/injection, schedule: Q01DX001 (ip), vehicle: carboxymethylcellulose (CMC)
[7] = dose: 200.0 mg/kg/injection, schedule: Q01DX001 (ip), vehicle: carboxymethylcellulose (CMC)
[8] = dose: 400.0 mg/kg/injection, schedule: Q01DX001 (ip), vehicle: carboxymethylcellulose (CMC)
[9] = dose: 100.0 mg/kg/injection, schedule: Q01DX001 (ip), vehicle: saline
[10] = dose: 200.0 mg/kg/injection, schedule: Q01DX001 (ip), vehicle: saline
[11] = dose: 400.0 mg/kg/injection, schedule: Q01DX001 (ip), vehicle: saline

Measured: T/C

C=C(C)Cn1cnc2c1c(=O)n(C)c(=O)n2C
inactive: [1] 103 % of control | [2] 98 % of control | [3] 89 % of control

OCSCc1c(Cl)c(Cl)c(Cl)c(Cl)c1Cl
inactive: dose: 100.0 mg/kg/injection, schedule: Q04DX002 (ip), vehicle: Klucel (hydroxypropylcellulose) (HPC) 103 % of control | dose: 200.0 mg/kg/injection, schedule: Q04DX002 (ip), vehicle: Klucel (hydroxypropylcellulose) (HPC) 103 % of control | dose: 400.0 mg/kg/injection, schedule: Q04DX002 (ip), vehicle: Klucel (hydroxypropylcellulose) (HPC) 98 % of control

CCCCc1ccc(-n2cnc3c(=O)[nH]c(N)nc32)cc1
inactive: [4] 88 % of control | [5] 97 % of control

CC(C)=CCc1c2c(c3occ(-c4ccc(O)c(O)c4)c(=O)c3c1O)C=CC(C)(C)O2
inactive: dose: 50.0 mg/kg/injection, schedule: Q04DX003 (ip), vehicle: Klucel (hydroxypropylcellulose) (HPC) 93 % of control | dose: 100.0 mg/kg/injection, schedule: Q04DX003 (ip), vehicle: Klucel (hydroxypropylcellulose) (HPC) 100 % of control | dose: 200.0 mg/kg/injection, schedule: Q04DX003 (ip), vehicle: Klucel (hydroxypropylcellulose) (HPC) 104 % of control

CC1=CC(=O)CC(c2ccccc2)C1 (stereo not drawn)
inactive: [6] 105 % of control | [7] 103 % of control | [8] 109 % of control

Cc1ccccc1OCC(=O)Nc1ccc(-c2ccc(NC(=O)COc3ccccc3C)cc2)cc1
inactive: dose: 100.0 mg/kg/injection, schedule: Q04DX002 (ip), vehicle: gum acacia 92 % of control | dose: 200.0 mg/kg/injection, schedule: Q04DX002 (ip), vehicle: gum acacia 95 % of control | dose: 400.0 mg/kg/injection, schedule: Q04DX002 (ip), vehicle: gum acacia 100 % of control

O=C(Nc1ccc(N=Nc2ccccc2)cc1)C(F)(F)F
inactive: [9] 102 % of control | [10] 109 % of control | [11] 93 % of control

Cc1cc(N=Cc2cccc([N+](=O)[O-])c2O)c2ccccc2n1
inactive: dose: 100.0 mg/kg/injection, schedule: Q01DX001 (ip), vehicle: other 101 % of control

C/C=C\C=C\C(=O)OC
inactive: [4] 99 % of control | [5] 89 % of control | dose: 400.0 mg/kg/injection, schedule: Q04DX003 (ip), vehicle: saline with Tween-80 92 % of control

CCN(CC)CCOC(=O)c1cccnc1
inactive: dose: 25.0 mg/kg/injection, schedule: Q01DX009 (ip), vehicle: saline 96 % of control | dose: 25.0 mg/kg/injection, schedule: Q04DX003 (ip), vehicle: saline 103 % of control | dose: 50.0 mg/kg/injection, schedule: Q01DX009 (ip), vehicle: saline 94 % of control | dose: 50.0 mg/kg/injection, schedule: Q04DX003 (ip), vehicle: saline 97 % of control | dose: 100.0 mg/kg/injection, schedule: Q01DX009 (ip), vehicle: saline 100 % of control | [1] 97 % of control | dose: 200.0 mg/kg/injection, schedule: Q01DX009 (ip), vehicle: saline 86 % of control | [2] 95 % of control | dose: 400.0 mg/kg/injection, schedule: Q01DX009 (ip), vehicle: saline 107 % of control | [3] 101 % of control

c1cc[c]([Sn]([c]2ccccc2)([CH]2CCCCC2)[CH]2CCCCC2)cc1
inactive: dose: 75.0 mg/kg/injection, schedule: Q04DX002 (ip), vehicle: gum acacia 96 % of control | dose: 150.0 mg/kg/injection, schedule: Q04DX002 (ip), vehicle: gum acacia 101 % of control | dose: 300.0 mg/kg/injection, schedule: Q04DX002 (ip), vehicle: gum acacia 96 % of control

Cc1ccc(C(=O)OCC(C)C)s1
inactive: [6] 98 % of control | [7] 101 % of control | [8] 98 % of control

CCC(CC)c1cccc2ccccc12
inactive: [9] 98 % of control | [10] 96 % of control | [11] 108 % of control
